Measurements from publication PMC6804044, “Design, Synthesis and Biological Evaluation of Pentacyclic Triterpene Derivatives: Optimization of Anti-ABL Kinase Activity” (Molecules, 2019).
Read-outs that look alike come from different tables or passages of the source.

Columns and labels:
CML cell line K562 = test: MTT cell viability assay, K562; format: cell-based, human; details: for IC50: read-out: IC50 Values, K562 Cell Line; for SI (selectivity index): ratio of the IC50 between PBMC and K562 cells
Description: A549 human lung carcinoma and HeLa human cervical carcinoma cell lines were cultured in Dulbecco’s Modified Eagle Medium (DMEM). […] In experiments, all cancer cell lines and PBMC were cultured in 24-well and 96-well plates (Iwaki brand Asahi Glass, Chiba, Japan) at 2 × 10^4 cells/mL and 1 × 10^6 cells/mL concentrations, respectively for 24 h.
(§1) The cells were then stained with MTT solution and incubated for additional 4 h. At the end of this period, supernatants were removed and 100 μL DMSO was added to each well to solubilize the formazan crystals. The absorbance of the solution was determined on the Infinitive M1000 (Tecan, Mannedorf, Switzerland) plate reader at a wavelength of 550 nm with background subtraction at 630 nm.

[1] = system: peripheral blood mononuclear cells (PBMC); test: MTT cell viability assay, PBMC; format: cell-based; details: 24 h exposure
Description: A549 human lung carcinoma and HeLa human cervical carcinoma cell lines were cultured in Dulbecco’s Modified Eagle Medium (DMEM). MCF7 human breast cancer and leukemic (K562, HL-60, MT-2 and Jurkat) cells, and PBMC (Precision Bioservices, Frederic, MD, USA) were cultured in RPMI 1640. All media were purchased from FUJIFILM Wako (Osaka, Japan) and supplemented with 10% fetal bovine serum (FBS) (Sigma-Aldrich, St. Louis, MO, USA) and 89 μg/mL streptomycin (Meiji Seika Pharma, Tokyo, Japan) at 37 °C in a humid atmosphere and 5% CO2. In experiments, all cancer cell lines and PBMC were cultured in 24-well and 96-well plates (Iwaki brand Asahi Glass, Chiba, Japan) at 2 × 10^4 cells/mL and 1 × 10^6 cells/mL concentrations, respectively for 24 h.
as §1, with “The cells were exposed to various concentrations (1–100 μM) of the compounds for 24 h at 37 °C. The cells” for “The cells”

[2] = Homo sapiens, K562, 24 h, MTT, 24 h exposure

| Compound | IC50 (CML cell line K562; [2]) | SI (selectivity index) (CML cell line K562) | IC50 ([1]; PBMC) | IC50 (CML cell line K562; Homo sapiens, K562, 24 h) | IC50 (CML cell line K562; MTT, 24 h exposure) | IC50 [1] | cytotoxicity on K562 relative to parent triterpene HE (CML cell line K562; fold vs HE) |
| --- | --- | --- | --- | --- | --- | --- | --- |
| C[C@H]1[C@H](C)CC[C@]2(C(=O)O)CC[C@]3(C)C(=CC[C@@H]4[C@@]5(C)C[C@@H](O)[C@H](O)[C@@](C)(CO)[C@@H]5CC[C@]43C)[C@H]12 [AA, asiatic acid, reference compound] | 29.3 ± 3.42 µM | >3.41 | > 100 µM | – | – | – | – |
| CC1(C)[C@@H](O)CC[C@]2(C)[C@H]3C(=O)C=C4[C@@H]5C[C@@](C)(C(=O)OCc6ccccc6)CC[C@]5(C)CC[C@@]4(C)[C@]3(C)CC[C@@H]12 [PT3, Glycyrrhetic acid benzyl ester] | – | >1.44 | > 100 µM | 69.5 ± 8.43 µM | – | – | – |
| gypsogenin [GP, reference compound] | – | – | – | – | 12.7 ± 2.15 µM | > 100 µM | – |
| C[C@H]1[C@H](C)CC[C@]2(C(=O)OCc3ccccc3)CC[C@]3(C)C(=CC[C@@H]4[C@@]5(C)CC[C@H](O)C(C)(C)[C@@H]5CC[C@]43C)[C@H]12 [PT6, Ursolic acid benzyl ester] | 21.8 ± 1.24 µM | 1.99 | 43.3 ± 1.93 µM | – | – | – | – |
| CC1(C)[C@@H](O)CC[C@]2(C)[C@H]3C(=O)C=C4[C@@H]5C[C@@](C)(C(=O)O)CC[C@]5(C)CC[C@@]4(C)[C@]3(C)CC[C@@H]12 [GA, glycyrrhetinic acid, reference compound] | 41 ± 5.34 µM | >2.43 | > 100 µM | – | – | – | – |
| CC1(C)CC[C@]2(C(=O)O)CC[C@]3(C)C(=CC[C@@H]4[C@@]5(C)CC[C@H](O)[C@@](C)(CO)[C@@H]5CC[C@]43C)[C@@H]2C1 [HE, hederagenin, reference compound] | > 100 µM | >1 | > 100 µM | – | – | – | – |
| C[C@H]1[C@H](C)CC[C@]2(C(=O)OCc3ccccc3)CC[C@]3(C)C(=CC[C@@H]4[C@@]5(C)C[C@@H](O)[C@H](O)[C@@](C)(CO)[C@@H]5CC[C@]43C)[C@H]12 [PT1, Asiatic acid benzyl ester] | 4.1 ± 0.85 µM | 3.79 | 15.5 ± 1.08 µM | – | – | – | – |
| C=C(C)[C@@H]1CC[C@]2(C(=O)O)CC[C@]3(C)[C@H](CC[C@@H]4[C@@]5(C)CC[C@H](O)C(C)(C)[C@@H]5CC[C@]43C)[C@@H]12 [BA, betulinic acid, reference compound] | 52.3 ± 4.79 µM | >1.91 | > 100 µM | – | – | – | – |
| C[C@H]1[C@H](C)CC[C@]2(C(=O)O)CC[C@]3(C)C(=CC[C@@H]4[C@@]5(C)CC[C@H](O)C(C)(C)[C@@H]5CC[C@]43C)[C@H]12 [UA, ursolic acid, reference compound] | 16.5 ± 1.13 µM | >6.06 | > 100 µM | – | – | – | – |
| C=C(C)[C@@H]1CC[C@]2(C(=O)OCc3ccccc3)CC[C@]3(C)[C@H](CC[C@@H]4[C@@]5(C)CC[C@H](O)C(C)(C)[C@@H]5CC[C@]43C)[C@@H]12 [PT2, Betulinic acid benzyl ester] | 8.49 ± 1.22 µM | 3.29 | 28 ± 2.74 µM | – | – | – | – |
| CC1(C)CC[C@]2(C(=O)OCc3ccccc3)CC[C@]3(C)C(=CC[C@@H]4[C@@]5(C)CC[C@H](O)[C@@](C)(CO)[C@@H]5CC[C@]43C)[C@@H]2C1 [PT4, Hederagenin benzyl ester] | 6.48 ± 1.27 µM | 3.56 | 23.1 ± 3.11 µM | – | – | – | more than 15 times |
| CC1(C)CC[C@]2(C(=O)O)CC[C@]3(C)C(=CC[C@@H]4[C@@]5(C)CC[C@H](O)C(C)(C)[C@@H]5CC[C@]43C)[C@@H]2C1 [OA, oleanolic acid, reference compound] | ~13 µM | – | > 100 µM | – | 13.5 ± 2.55 µM | – | – |
